In PubChem BioAssay (NCI):
Several values for one entry are separate records, joined by “and”; a condition that tells them apart may be missing. Equal entries are not always repeated.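 96-well plates; 48 h exposure; 5 concentrations. Endpoints by linear interpolation between flanking doses. Not reached: highest tested concentration assigned. GI50: concentration for 50% inhibition of growth. At the TGI there is no net growth.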

Tests used:
Assay in all cases: DTP human tumour cell line panel, 48 h
IGROV1 ovarian = test system: IGROV1 ovarian
HCC-2998 colon = test system: HCC-2998 colon
SK-MEL-2 melanoma = test system: SK-MEL-2 melanoma
UACC-257 melanoma = test system: UACC-257 melanoma
HCT-116 colon = test system: HCT-116 colon
MOLT-4 leukemia = test system: MOLT-4 leukemia
NCI-H226 lung = test system: NCI-H226 lung
HT29 colon = test system: HT29 colon
HOP-92 NSCLC = test system: HOP-92 NSCLC
PC-3 prostate = test system: PC-3 prostate
OVCAR-3 ovarian = test system: OVCAR-3 ovarian
K-562 leukemia = test system: K-562 leukemia
UO-31 renal = test system: UO-31 renal
M14 melanoma = test system: M14 melanoma
COLO 205 colon = test system: COLO 205 colon
SF-539 CNS = test system: SF-539 CNS
T-47D breast = test system: T-47D breast
RXF 393 renal = test system: RXF 393 renal
MDA-MB-231 breast = test system: MDA-MB-231 breast
786-0 renal = test system: 786-0 renal
NCI/ADR-RES ovarian = test system: NCI/ADR-RES ovarian
OVCAR-8 ovarian = test system: OVCAR-8 ovarian
SW-620 colon = test system: SW-620 colon
NCI-H460 lung = test system: NCI-H460 lung
SNB-75 CNS = test system: SNB-75 CNS
CCRF-CEM leukemia = test system: CCRF-CEM leukemia
NCI-H23 lung = test system: NCI-H23 lung
DU-145 prostate = test system: DU-145 prostate
SR leukemia = test system: SR leukemia
A498 renal = test system: A498 renal
LOX IMVI melanoma = test system: LOX IMVI melanoma
OVCAR-4 ovarian = test system: OVCAR-4 ovarian
KM12 colon = test system: KM12 colon
OVCAR-5 ovarian = test system: OVCAR-5 ovarian
TK-10 renal = test system: TK-10 renal
HL-60(TB) leukemia = test system: HL-60(TB) leukemia
SNB-19 CNS = test system: SNB-19 CNS
CAKI-1 renal = test system: CAKI-1 renal
UACC-62 melanoma = test system: UACC-62 melanoma
U251 CNS = test system: U251 CNS
SK-MEL-5 melanoma = test system: SK-MEL-5 melanoma
RPMI-8226 leukemia = test system: RPMI-8226 leukemia
SF-295 CNS = test system: SF-295 CNS
MCF7 breast = test system: MCF7 breast
MDA-MB-435 = test system: MDA-MB-435
EKVX NSCLC = test system: EKVX NSCLC
HS 578T breast = test system: HS 578T breast
HOP-62 NSCLC = test system: HOP-62 NSCLC
SK-OV-3 ovarian = test system: SK-OV-3 ovarian
A549 NSCLC = test system: A549 NSCLC
HCT-15 colon = test system: HCT-15 colon
MALME-3M melanoma = test system: MALME-3M melanoma
BT-549 breast = test system: BT-549 breast
SN12C renal = test system: SN12C renal
SK-MEL-28 melanoma = test system: SK-MEL-28 melanoma
NCI-H522 lung = test system: NCI-H522 lung
SF-268 CNS = test system: SF-268 CNS
ACHN renal = test system: ACHN renal

For `CC1(O)CC(c2nc(-c3ccc4ccc(-c5ccccc5)nc4c3)c3c(N)nccn23)C1` (centres undefined), the GI50 (IGROV1 ovarian) was 19.1 µM and > 10 µM, the TGI (IGROV1 ovarian) was over 100 µM and the GI50 (HCC-2998 colon) was 6.71 µM and > 10 µM. The TGI (HCC-2998 colon) was 27.3 µM and > 10 µM, the GI50 (SK-MEL-2 melanoma) was 10.1 µM and 6.63 µM and the TGI (SK-MEL-2 melanoma) was 60.6 µM and > 10 µM. For the same compound, the GI50 (UACC-257 melanoma) was 5.68 µM and > 10 µM, the TGI (UACC-257 melanoma) was 48.2 µM and > 10 µM and the GI50 (HCT-116 colon) was 7.32 µM and 5.29 µM. The TGI (HCT-116 colon) was 26.7 µM and > 10 µM, the GI50 (MOLT-4 leukemia) was 7.16 µM and 3.72 µM and the TGI (MOLT-4 leukemia) was over 80.1 µM. For the same compound, the GI50 (NCI-H226 lung) was 3.72 µM and 3.12 µM, the TGI (NCI-H226 lung) was 49.7 µM and > 10 µM and the GI50 (HT29 colon) was 105 nM and 58.8 nM. For the same compound, the TGI (HT29 colon) was 21.5 µM and > 10 µM, the GI50 (HOP-92 NSCLC) was 27.2 nM and 62.5 nM and the TGI (HOP-92 NSCLC) was 1150 nM and 1430 nM. The GI50 (PC-3 prostate) was 12.7 µM and > 10 µM, the TGI (PC-3 prostate) was over 100 µM and the GI50 (OVCAR-3 ovarian) was 15 µM and > 10 µM. The TGI (OVCAR-3 ovarian) was 34.7 µM and > 10 µM, the TGI (K-562 leukemia) was over 100 µM and the GI50 (UO-31 renal) was 3600 nM and 1650 nM. For the same compound, the TGI (UO-31 renal) was over 76.3 µM, the GI50 (M14 melanoma) was 11.5 µM and > 10 µM and the TGI (M14 melanoma) was 31.1 µM and > 10 µM. The GI50 (COLO 205 colon) was 346 nM and 98.9 nM, the TGI (COLO 205 colon) was 14.2 µM and 4.07 µM and the GI50 (SF-539 CNS) was 11.9 µM and > 10 µM. The TGI (SF-539 CNS) was 28.8 µM and > 10 µM, the GI50 (T-47D breast) was 3.94 µM and 2.82 µM and the TGI (T-47D breast) was 24.1 µM and > 10 µM. For the same compound, the GI50 (RXF 393 renal) was 3.71 µM and 4.96 µM, the TGI (RXF 393 renal) was 13.7 µM and > 10 µM and the GI50 (MDA-MB-231 breast) was 6.97 µM and 5.12 µM. The TGI (MDA-MB-231 breast) was 38.1 µM and > 10 µM, the GI50 (786-0 renal) was 15 µM and > 10 µM and the TGI (786-0 renal) was 53.7 µM and > 10 µM. For the same compound, the GI50 (NCI/ADR-RES ovarian) was 10.6 µM and > 10 µM, the TGI (NCI/ADR-RES ovarian) was 96.9 µM and > 10 µM and the GI50 (OVCAR-8 ovarian) was 9.34 µM and > 10 µM. For the same compound, the TGI (OVCAR-8 ovarian) was 80 µM and > 10 µM, the GI50 (SW-620 colon) was 4.87 µM and 2.36 µM and the TGI (SW-620 colon) was 34.8 µM and > 10 µM. The GI50 (NCI-H460 lung) was 2700 nM and 1500 nM, the TGI (NCI-H460 lung) was 24.8 µM and > 10 µM and the GI50 (SNB-75 CNS) was 4.62 µM and 5.57 µM. The TGI (SNB-75 CNS) was 43.2 µM and > 10 µM, the GI50 (CCRF-CEM leukemia) was 9.89 µM and > 10 µM and the TGI (CCRF-CEM leukemia) was over 100 µM. The GI50 (NCI-H23 lung) was 8.83 µM and 5.03 µM, the TGI (NCI-H23 lung) was over 80.8 µM and the GI50 (DU-145 prostate) was 7.4 µM and 8.12 µM. The TGI (DU-145 prostate) was over 86.8 µM, the GI50 (SR leukemia) was 15.7 µM and 7.92 µM and the TGI (SR leukemia) was over 75.2 µM. The GI50 (A498 renal) was 3.32 µM and 4.55 µM, the TGI (A498 renal) was 12.8 µM and > 10 µM and the GI50 (LOX IMVI melanoma) was 7.41 µM and 6.46 µM. The TGI (LOX IMVI melanoma) was 45.4 µM and > 10 µM, the GI50 (OVCAR-4 ovarian) was 7.5 µM and > 10 µM and the TGI (OVCAR-4 ovarian) was over 95 µM. The GI50 (KM12 colon) was 4.31 µM and 3.88 µM, the TGI (KM12 colon) was 19.4 µM and > 10 µM and the GI50 (OVCAR-5 ovarian) was 12.1 µM and > 10 µM. The TGI (OVCAR-5 ovarian) was 44.7 µM and > 10 µM, the GI50 (TK-10 renal) was 12 µM and > 10 µM and the TGI (TK-10 renal) was 56.3 µM and > 10 µM. The TGI (HL-60(TB) leukemia) was 25.8 µM and > 10 µM, the GI50 (SNB-19 CNS) was 19.8 µM and > 10 µM and the TGI (SNB-19 CNS) was over 100 µM. The GI50 (CAKI-1 renal) was 4.58 µM and 2.16 µM, the TGI (CAKI-1 renal) was over 100 µM and the GI50 (UACC-62 melanoma) was 10.8 µM and > 10 µM. The TGI (UACC-62 melanoma) was 32.2 µM and > 10 µM, the GI50 (U251 CNS) was 13.4 µM and > 10 µM and the TGI (U251 CNS) was 36.3 µM and > 10 µM. The GI50 (SK-MEL-5 melanoma) was 3.38 µM, the TGI (SK-MEL-5 melanoma) was 14.9 µM and the GI50 (RPMI-8226 leukemia) was 6.55 µM and 3.98 µM. For the same compound, the TGI (RPMI-8226 leukemia) was 31.9 µM and > 10 µM, the GI50 (SF-295 CNS) was 12.5 µM and > 10 µM and the TGI (SF-295 CNS) was 48.1 µM and > 10 µM. The GI50 (MCF7 breast) was 122 nM and 332 nM, the TGI (MCF7 breast) was over 43.3 µM and the GI50 (MDA-MB-435) was 4.53 µM and 3.69 µM. For the same compound, the TGI (MDA-MB-435) was 27.3 µM and > 10 µM, the GI50 (EKVX NSCLC) was 11.7 µM and > 10 µM and the TGI (EKVX NSCLC) was over 100 µM. The GI50 (HS 578T breast) was 13.8 µM and 4.28 µM, the TGI (HS 578T breast) was 51.9 µM and > 10 µM and the GI50 (HOP-62 NSCLC) was 5.75 µM and 7.35 µM. For the same compound, the TGI (HOP-62 NSCLC) was 50.6 µM and > 10 µM, the GI50 (SK-OV-3 ovarian) was 10.4 µM and 9.84 µM and the TGI (SK-OV-3 ovarian) was over 100 µM. For the same compound, the GI50 (A549 NSCLC) was 10.5 µM and > 10 µM, the TGI (A549 NSCLC) was over 100 µM and the GI50 (HCT-15 colon) was 4.52 µM and 3.68 µM. The TGI (HCT-15 colon) was over 79.6 µM, the GI50 (MALME-3M melanoma) was 7.95 µM and > 10 µM and the TGI (MALME-3M melanoma) was 38.2 µM and > 10 µM. The GI50 (BT-549 breast) was 6.92 µM and 5.87 µM, the TGI (BT-549 breast) was 24.3 µM and > 10 µM and the GI50 (SN12C renal) was 9.64 µM and > 10 µM. For the same compound, the TGI (SN12C renal) was over 80.9 µM, the GI50 (SK-MEL-28 melanoma) was 12 µM and > 10 µM and the TGI (SK-MEL-28 melanoma) was 44.3 µM and > 10 µM. For the same compound, the GI50 (NCI-H522 lung) was 12 µM and > 10 µM, the TGI (NCI-H522 lung) was 35.5 µM and > 10 µM and the GI50 (SF-268 CNS) was 12.9 µM and > 10 µM. For the same compound, the TGI (SF-268 CNS) was 55.3 µM and > 10 µM, the GI50 (ACHN renal) was 7.44 µM and 7.79 µM and the TGI (ACHN renal) was over 100 µM.
